Measured values taken from patent US10918629B2, “Method for treating lymphedema” (The Curators of the University of Missouri, priority 2014, dated 2021).
“And” between values parts separate entries of the source, which are not always exact repeats. Equal entries are not always repeated. “Also recorded” adds a separate entry of the source.

Tests used:
[1] = system: healthy lymphangion; experiment: Rescue of valve lock in isolated pressurized lymphangions under elevated pressure; set-up: species or system mouse
Excerpt: FIG. 1A and FIG. 1B depict single (FIG. 1A) and multiple (FIG. 1B) lymphangion preparations showing measurements of pressure, diameter and valve position. FIG. 1C and FIG. 1D depict 1-valve preparations used for valve closure (FIG. 1C) and back-leak (FIG. 1D) tests. Color coding applies to pressure, diameter & valve traces shown in all subsequent figures; blue=upstream. black=mid segment, red=downstream. Pin and Pout are controlled with a computer-based servo controller; PL is intraluminal pressure measured with a servo-null micropipette inserted through the wall; diameters are measured with computer-based edge detection^(15); valve positions are determined using densitometry windows as shown^(21,22,69,71).
Studies were made of single and multiple lymphangions from mice under hydrostatic conditions simulating those experienced in primary and secondary lymphedema. When a progressive rise in outflow pressure is imposed, simulating the pressure load on the vessel in a dependent extremity, the normal response of the vessel is a myogenic constriction to Pout elevation (arrow, described in detail in ref.^(71)) with continued pumping, such that internal pressure generation slightly exceeds Pout during systole of each contraction cycle (*); as a result the output valve opens briefly in systole, allowing partial ejection. […]

[2] = system: mouse popliteal vessel; experiment: Contractile function of isolated lymphatic vessels with impaired contractility
Excerpt: FIG. 9A, FIG. 9B, FIG. 9C and FIG. 9D depict the effect of norepinephrine (NE) on vessels with impaired contractility. […] FIG. 9C depicts that NE enhanced contractions in 13/14 vessels with impaired contractions and (FIG. 9D) induced >3.5-fold increase in FREQ (contraction frequency) and 2-fold increase in AMP (contraction amplitude) in a subset 8 vessels that had control contractions.
Data has been obtained to support the contention that NE has the potential not only to relieve valve lock (FIG. 3C) but also to enhance pump function. […] It is presumed that NE works by enhancing inotropy under these conditions and that it may be particularly effective in vessels fatigued or in partial pump failure from chronic pressure overload.

[3] = system: human mesenteric lymphatic vessels; experiment: Isolated pressurized human mesenteric lymphatic vessel segments, response to NE; conditions: 33 nM NE
Method: Recently, 1-, 2- and 3-valve segments of human mesenteric lymphatic vessels obtained following bariatric surgery were studied and their responses to Pout and/or Pin elevation and NE were tested. These are the first such measurements in isolated pressurized human lymphatics. […] Like rat/mouse vessels, the valves are biased to be open in the absence of a pressure gradient (arrowhead). Valve gating curves or tests for valve lock were unable to be performed because the vessels were too large to be studied on the microscope used with the pressure controller. However, it was encouraging to find that every response tested was similar to those of rat/mouse vessels.

[4] = system: dysfunctional lymphatic vessels; experiment: Phenylephrine on dysfunctional mouse lymphatic vessel; conditions: mouse diseased tissue sample, FIG. 18
[5] = system: dysfunctional lymphatic vessels; experiment: KATP channel inhibitor / L-type calcium channel agonist on diseased mouse tissue sample; conditions: single agent, FIG. 20
Method: Glibendamide was then applied to a disease mouse tissue sample. […] The combination of glibenclamide and BayK8644 was then evaluated in a diseased mouse tissue sample. […] BayK8644, along with BayR5417 and FPL64176, are exemplary L-type calcium channel agonists.

[6] = subset of 8 vessels that had control contractions

NC[C@H](O)c1ccc(O)c(O)c1 [NE, norepinephrine]
relief of valve lock ([1]; pressure remains elevated, dose that counteracts the loss of tone but does not fuse contractions): relieves valve lock; also recorded: reverses valve lock; also recorded: can be rescued | working range of a lymphangion pumping against an output load ([1]; prophylactic application, vessel not yet failed): can be extended | dose-dependent effect on frequency, tone and inotropy ([2]; 10^−8 to 10^−7M, FIG. 9): increases in frequency, tone and inotropy | effect on contractions and pumping of vessels with impaired contractility ([2]; fatigued or weakly contracting vessels): induce tone and spontaneous contractions; also recorded: induced robust contractions that persisted when pressure was elevated; also recorded: restores contraction and pumping; also recorded: induces spontaneous contractions; also recorded: consistent, large-amplitude contractions | likelihood of having spontaneous contractions ([2]; preliminary analysis, FIG. 9C): doubles | increase in AMP (contraction amplitude) [2, 6]: 2 fold | increase in FREQ (contraction frequency) [2, 6]: 3.5 fold and > 3.5 fold | vessels with enhanced contractions ([2]; vessels with impaired contractions, knock-out mouse developing hindlimb edema): 13/14 | effect on tone [3]: increase in tone | increase in AMP [3]: ~50% | increase in FREQ [3]: ~2 fold

CNC[C@H](O)c1cccc(O)c1 [PE, phenylephrine]
effect on contraction and pumping [4]: restored contraction and pumping; also recorded: improves/restores normal contractions and pumping functions

COc1ccc(Cl)cc1C(=O)NCCc1ccc(S(=O)(=O)NC(=O)NC2CCCCC2)cc1 [glibenclamide]
effect on contractions and pumping functions [5]: improves/restores normal contractions and pumping functions
